Values quoted from earlier work, collected in patent publication US20210198629A1, “COMPOSITIONS AND METHODS FOR INCREASING BEIGING OF WHITE ADIPOSE TISSUE” (University of Georgia Research Foundation, Inc., priority 2018, published 2021).
Where two headings read alike, the source gives them in different places.

What was measured:
Ucp1 = conditions: cited from earlier work
rhabdoid tumor cells = conditions: combinatorial treatment with cytostatic compounds (e.g., cisplatin); cited from earlier work
BRD9 = biological target: T1, BRD9 (Homo sapiens, UniProt Q9H8M2); conditions: cited from earlier work
T1 sequence (Q9H8M2 1-597): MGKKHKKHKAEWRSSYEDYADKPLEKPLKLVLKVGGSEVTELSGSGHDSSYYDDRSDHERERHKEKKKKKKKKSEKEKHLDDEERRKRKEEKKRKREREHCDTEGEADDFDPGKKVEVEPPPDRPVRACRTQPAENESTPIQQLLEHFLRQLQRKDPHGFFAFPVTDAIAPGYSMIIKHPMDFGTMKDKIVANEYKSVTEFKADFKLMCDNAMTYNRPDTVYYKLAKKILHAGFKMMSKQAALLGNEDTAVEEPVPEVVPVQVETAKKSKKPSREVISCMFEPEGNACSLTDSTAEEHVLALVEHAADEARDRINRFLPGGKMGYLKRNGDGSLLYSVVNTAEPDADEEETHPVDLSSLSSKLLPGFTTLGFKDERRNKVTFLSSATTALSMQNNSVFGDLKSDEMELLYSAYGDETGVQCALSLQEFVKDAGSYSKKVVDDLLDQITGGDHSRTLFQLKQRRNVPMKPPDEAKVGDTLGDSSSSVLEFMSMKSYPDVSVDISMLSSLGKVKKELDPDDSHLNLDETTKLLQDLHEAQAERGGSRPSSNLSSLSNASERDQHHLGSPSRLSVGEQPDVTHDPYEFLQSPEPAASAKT

[1] = test system: EGFR mutant PC9 cancer cells; conditions: cited from earlier work

With `COc1ccc(Br)cc1/C=C1\SC(=O)N(Cc2ccc(C)cc2)C1=O` [GQ-16] as the compound, how does the “WAT beiging, increase of Ucp1” value (Ucp1; oral administration 40 mg/kg/d, for 14 days) read?
The value was 5 fold.

For `C=C(c1ccc(C(=O)O)cc1)c1cc2c(cc1C)C(C)(C)CCC2(C)C` [Bexarotene], which “WAT beiging, increase of Ucp1” value (Ucp1; oral administration 50 mg/kg/d, for 28 days, only in subcutaneous WATs) is on record?
The value was 1.5 fold.

Which “WAT beiging, increase of Ucp1” value (Ucp1; intraperitoneal injection 1 mg/kg/d for 14 days) does the source give for `CCc1cc2c(c(CC)n1)CCC(=O)N2Cc1ccc(-c2ccccc2-c2nn[nH]n2)cc1` [ZD7155] here?
The value was “less than 2 fold”.

With `CCn1cc(-c2cccc(C(F)(F)F)c2)c2sc(C(=N)NC3CCS(=O)(=O)CC3)cc2c1=O` [I-BRD9, N′-(1,1-dioxothian-4-yl)-5-ethyl-4-oxo-7-[3-(trifluoromethyl)phenyl]thieno[3,2-c]pyridine-2-carboximidamide] as the compound, how does the “proliferation of rhabdoid tumor cells” value (rhabdoid tumor cells) read?
The value was “synergistically inhibit”.

What about the “selectivity over the BET family” value (BRD9; BRD9 vs BET family) of the same compound?
The value was > 700 fold.

And the “selectivity over the highly homologous BRD7” value (BRD9; BRD9 vs BRD7)?
Its value is 200 fold.

For `C/C=C/Cn1cc(-c2cc(OC)c(C(=O)N3CCOCC3)cc2OC)c2cc[nH]c2c1=O` [GNE-375], which drug resistance development ([1]; EGFR mutant PC9 cancer cells) is on record?
The drug resistance development was “prevent the drug resistance development”.

What about the cell viability ([1]; PC9 study) of the same compound?
The cell viability was “little effects”.

And the “expression of ALDH1A1” value ([1]; PC9 study)?
Its value is “decreases”.

And the global gene expression ([1]; PC9 study)?
The global gene expression was “little effects”.

For `CC[C@H](CO)Nc1nc(NCc2ccccc2)c2ncn(C(C)C)c2n1` [Roscovitine], which WAT beiging (Ucp1; intraperitoneal injection 50 mg/kg/d for 42 days) is on record?
The WAT beiging was “induced WAT beiging”.
